For assay [1], the target named is human activated kallikrein enzyme (Homo sapiens, UniProt P03952). Nature of the assay: Inhibition of activated plasma kallikrein, fluorogenic peptide substrate (PFR-AMC) assay, 500 pM enzyme format. The format is biochemical. The conditions noted are these: 500 pM activated kallikrein, 300 uM PFR-AMC, 30 min preincubation, 10 min reaction, room temperature; read-out: Primary Dose Response Assay: Average EC50. The method, boiled down:
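500 pM enzyme preincubated 30 min at room temperature with inhibitor in 20 mM Tris pH 7.5, 150 mM NaCl, 1 mM EDTA, 0.1% PEG-400, 0.1% Triton X-100. Reaction started with 300 uM PFR-AMC and run 10 min at room temperature. Fluorescence read at 380 nm excitation/460 nm emission.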

In another assay the target is T1, plasma kallikrein (Homo sapiens, UniProt P03952).
T1 construct: from tissue; host or cells: sodium citrate collected human plasma (78% final)
The assay is described as follows: Neat human plasma assay: contact pathway-activated (FXIIa) plasma, PFR-AMC substrate. The class given is biochemical. To be noted: citrated human plasma (78% final), 10 nM human FXIIa, 100 μM PFR-AMC, room temperature. The method, boiled down:
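Compounds spiked into citrated human or rat plasma (78% final), or plasma taken from orally or IV dosed rats, activated with 10 nM human FXIIa; 100 μM PFR-AMC cleavage read at 360/480 nm for 5 min, room temperature. Rates vs concentration fit to 4-parameter IC50/IC90 equation.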

Structures are written as SMILES. Counter-ions that a name gives are not always drawn. Some results are limits rather than exact numbers.

Chain of human activated kallikrein enzyme (P03952 391-638 limits assumed): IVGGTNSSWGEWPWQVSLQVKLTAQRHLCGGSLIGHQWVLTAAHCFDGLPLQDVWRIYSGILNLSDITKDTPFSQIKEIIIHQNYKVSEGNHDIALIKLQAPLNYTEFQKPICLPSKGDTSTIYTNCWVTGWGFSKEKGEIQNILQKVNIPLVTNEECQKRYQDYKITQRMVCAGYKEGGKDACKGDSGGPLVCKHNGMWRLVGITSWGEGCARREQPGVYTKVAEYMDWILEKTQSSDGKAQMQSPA
Chain of human activated kallikrein enzyme (P03952 20-390 partner limits assumed): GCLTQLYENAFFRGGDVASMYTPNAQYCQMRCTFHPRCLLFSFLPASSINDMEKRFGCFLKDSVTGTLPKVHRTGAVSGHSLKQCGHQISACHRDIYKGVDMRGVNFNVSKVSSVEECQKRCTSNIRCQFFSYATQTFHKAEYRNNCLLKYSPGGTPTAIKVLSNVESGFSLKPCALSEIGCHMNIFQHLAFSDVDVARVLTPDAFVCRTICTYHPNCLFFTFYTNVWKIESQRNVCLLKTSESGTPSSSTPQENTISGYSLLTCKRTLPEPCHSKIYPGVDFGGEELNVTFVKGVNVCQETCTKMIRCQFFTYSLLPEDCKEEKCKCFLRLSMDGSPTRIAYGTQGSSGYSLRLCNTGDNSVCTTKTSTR
T1 sequence (P03952 391-638 limits assumed): as the sequence (P03952 391-638 limits assumed) above
T1 sequence (P03952 20-390 partner limits assumed): as the sequence (P03952 20-390 partner limits assumed) above

One may read the EC50 as the midpoint of the concentration-response curve. Broadly, the IC90 is the concentration at which the effect reaches the 90% level. A lower IC90 goes with an effect from little substance. As for `Cc1ccnc([C@H]2C[C@@H]2c2cc(NCC(C)(C)O)c3ccc(OCc4cn5cc(C6CC6)cc(N6CC(=O)N(C)C6=O)c5n4)cc3n2)n1` [Example 97, 1-(6-cyclopropyl-2-(((4-((2-hydroxy-2-methylpropyl)amino)-2-((1S,2S)-2-(4-methylpyrimidin-2-yl)cyclopropyl)quinolin-7-yl)oxy)methyl)imidazo[1,2-a]pyridin-8-yl)-3-methylimidazolidine-2,4-dione], the EC50 in assay [1] is at most 1 nM. On plasma kallikrein, the IC90 is at most 400 nM.
Regarding `Cc1ccnc([C@H]2C[C@@H]2c2cc(CC#N)c3ccc(NCc4cn5cc(C6CC6)cc(N6CC(=O)N(C)C6=O)c5n4)cc3n2)n1` (racemic) [Example 85, rac-2-(7-(((6-cyclopropyl-8-(3-methyl-2,4-dioxoimidazolidin-1-yl)imidazo[1,2-a]pyridin-2-yl)methyl)amino)-2-((1S*,2S*)-2-(4-methylpyrimidin-2-yl)cyclopropyl)quinolin-4-yl)acetonitrile], the EC50 in assay [1] is at most 1 nM. The molecule further showed an IC90 at plasma kallikrein of 1500 to 10000 nM.
In the same order, the values of `Cc1ccnc([C@H]2C[C@@H]2c2nc3cc(NCc4cn5cc(C6CC6)cc(N6CC(=O)N(C)C6=O)c5n4)ncc3c(=O)[nH]2)n1` (racemic) [Example 7, rac-1-(6-cyclopropyl-2-(((2-((1S*,2S*)-2-(4-methylpyrimidin-2-yl)cyclopropyl)-4-oxo-3,4-dihydropyrido[4,3-d]pyrimidin-7-yl)amino)methyl)imidazo[1,2-a]pyridin-8-yl)-3-methylimidazolidine-2,4-dione] are at most 1 nM and 400 to 1500 nM.
Regarding `Cc1ccnc([C@H]2C[C@@H]2c2nc3cc(NCc4cn5cc(C6CC6)cc(N6CC(=O)N(C)C6=O)c5n4)cnc3c(=O)[nH]2)n1` (racemic) [Example 9, rac-1-(6-cyclopropyl-2-(((2-((1S*,2S*)-2-(4-methylpyrimidin-2-yl)cyclopropyl)-4-oxo-3,4-dihydropyrido[3,2-d]pyrimidin-7-yl)amino)methyl)imidazo[1,2-a]pyridin-8-yl)-3-methylimidazolidine-2,4-dione], the 50% effective concentration (EC50) in assay [1] is at most 1 nM. The molecule also registered an IC90 at plasma kallikrein of 1500 to 10000 nM.
In the same order, the values of `Cc1ccnc([C@H]2C[C@@H]2c2cc(N3CCOCC3)c3ccc(NCc4cn5cc(C6CC6)cc(N6CC(=O)N(C)C6=O)c5n4)cc3n2)n1` (racemic) [Example 40, rac-1-(6-cyclopropyl-2-((1S*,2S)-2-(4-methylpyrimidin-2-yl)cyclopropyl)-4-morpholinoquinolin-7-yl)amino)methyl)imidazo[1,2-a]pyridin-8-yl)-3-methylimidazolidine-2,4-dione] are at most 1 nM and at most 400 nM.
With `Cc1ccnc([C@H]2C[C@@H]2c2cc(OC3COC3)c3ccc(NCc4cn5cc(C6CC6)cc(N6CC(=O)N(C)C6=O)c5n4)cc3n2)n1` (racemic) [Example 33, rac-1-(6-cyclopropyl-2-(((2-((1S*,2S*)-2-(4-methylpyrimidin-2-yl)cyclopropyl)-4-(oxetan-3-yloxy)quinolin-7-yl)amino)methyl)imidazo[1,2-a]pyridin-8-yl)-3-methylimidazolidine-2,4-dione], in assay [1], the EC50 is at most 1 nM. The IC90 against plasma kallikrein was in the range of 400 to 1500 nM.
As for `Cc1ccnc([C@H]2C[C@@H]2c2cc(CO)c3ccc(NCc4cn5cc(C6CC6)cc(N6CC(=O)N(C)C6=O)c5n4)cc3n2)n1` (racemic) [Example 77, rac-1-(6-cyclopropyl-2-(((4-(hydroxymethyl)-2-((1S*,2S*)-2-(4-methylpyrimidin-2-yl)cyclopropyl)quinolin-7-yl)amino)methyl)imidazo[1,2-a]pyridin-8-yl)-3-methylimidazolidine-2,4-dione], the EC50 in assay [1] is at most 1 nM. At plasma kallikrein, this molecule returned an IC90 of 400 to 1500 nM.
With `Cc1ccnc(C2CC2c2cc(=O)c3ccc(NCc4cn5cc(C6CC6)cc(N6CC(=O)N(C)C6=O)c5n4)cc3[nH]2)n1` (single isomer, unassigned) [Example 12, 1-(6-cyclopropyl-2-(((2-(2-(4-methylpyrimidin-2-yl)cyclopropyl)-4-oxo-1,4-dihydroquinolin-7-yl)amino)methyl)imidazo[1,2-a]pyridin-8-yl)-3-methylimidazolidine-2,4-dione], the EC50 in assay [1] is at most 1 nM. In addition, the concentration for an effect of 90% (IC90) against plasma kallikrein is 400 to 1500 nM.
As for `Cc1ccnc([C@H]2C[C@@H]2c2cc(N3CCN(C)CC3)c3ccc(NCc4cn5cc(C6CC6)cc(N6CC(=O)N(C)C6=O)c5n4)cc3n2)n1` [Example 39, 1-(6-cyclopropyl-2-(((4-(4-methylpiperazin-1-yl)-2-((1S,2S)-2-(4-methylpyrimidin-2-yl)cyclopropyl)quinolin-7-yl)amino)methyl)imidazo[1,2-a]pyridin-8-yl)-3-methylimidazolidine-2,4-dione], in assay [1], the EC50 is at most 1 nM. The molecule further gave an IC90 against plasma kallikrein of at most 400 nM.
The corresponding values for `Cc1ccnc([C@H]2C[C@@H]2c2cc(N(C)C)c3ccc(NCc4cn5cc(C6CC6)cc(N6CC(=O)N(C)C6=O)c5n4)cc3n2)n1` (racemic) [Example 29, rac-1-(6-cyclopropyl-2-(((4-(dimethylamino)-2-((1S*,2S*)-2-(4-methylpyrimidin-2-yl)cyclopropyl)quinolin-7-yl)amino)methyl)imidazo[1,2-a]pyridin-8-yl)-3-methylimidazolidine-2,4-dione] are at most 1 nM and at most 400 nM.
For the molecule `Cc1ccnc([C@H]2C[C@@H]2c2cc(-n3ccnc3)c3ccc(NCc4cn5cc(C6CC6)cc(N6CC(=O)N(C)C6=O)c5n4)cc3n2)n1` (racemic) [Example 25, rac-1-(2-(((4-(1H-imidazol-1-yl)-2-((1S*,2S*)-2-(4-methylpyrimidin-2-yl)cyclopropyl)quinolin-7-yl)amino)methyl)-6-cyclopropylimidazo[1,2-a]pyridin-8-yl)-3-methylimidazolidine-2,4-dione], in assay [1], the EC50 is at most 1 nM. Besides, the concentration for an effect of 90% (IC90) against plasma kallikrein lay within 1500 to 10000 nM.
For the molecule `Cc1ccnc([C@H]2C[C@@H]2c2cc(-c3cnn(C)c3)c3ccc(NCc4cn5cc(C6CC6)cc(N6CC(=O)N(C)C6=O)c5n4)cc3n2)n1` [Example 27, 1-(6-cyclopropyl-2-(((4-(1-methyl-1H-pyrazol-4-yl)-2-((1S,2S)-2-(4-methylpyrimidin-2-yl)cyclopropyl)quinolin-7-yl)amino)methyl)imidazo[1,2-a]pyridin-8-yl)-3-methylimidazolidine-2,4-dione], the EC50 in assay [1] is at most 1 nM. Further, on plasma kallikrein, the IC90 is 400 to 1500 nM.
In the same order, the values of `Cc1ccnc([C@H]2C[C@@H]2C2=NS(=O)(=O)c3cc4c(cc3N2)N(Cc2cn3cc(C5CC5)ccc3n2)CCO4)n1` [Example 93, 6-((6-cyclopropylimidazo[1,2-a]pyridin-2-yl)methyl)-3-((1S,2S)-2-(4-methylpyrimidin-2-yl)cyclopropyl)-7,8-dihydro-4H,6H-[1,4]oxazino[2′,3′:4,5]benzo[1,2-e][1,2,4]thiadiazine 1,1-dioxide] are at most 1 nM and 1500 to 10000 nM.
`Cc1ccnc([C@H]2C[C@@H]2c2ccc3cnc(NCc4cn5cc(C6CC6)cc(N6CC(=O)N(C)C6=O)c5n4)cc3n2)n1` (racemic) [Example 15, rac-1-(6-cyclopropyl-2-(((2-((1S*,2S*)-2-(4-methylpyrimidin-2-yl)cyclopropyl)-1,6-naphthyridin-7-yl)amino)methyl)imidazo[1,2-a]pyridin-8-yl)-3-methylimidazolidine-2,4-dione formic acid salt]: the EC50 in assay [1] fell in the range of 1 to 10 nM. This molecule also came in with an IC90 against plasma kallikrein of 1500 to 10000 nM.
In the same order, the values of `Cc1ccnc([C@H]2C[C@@H]2C2=NS(=O)(=O)c3ccc(NCc4cn5cc(C6CC6)ccc5n4)cc3N2)n1` (single isomer, unassigned) [Example 65] are at most 1 nM and 400 to 1500 nM.
In the same order, the values of `Cc1ccnc([C@H]2C[C@@H]2C2=CS(=O)(=O)c3ccc(NCc4cn5cc(C6CC6)cc(N6CC(=O)N(C)C6=O)c5n4)cc3N2)n1` (racemic) [Example 61, rac-1-(6-cyclopropyl-2-(((3-((1S*,2S*)-2-(4-methylpyrimidin-2-yl)cyclopropyl)-1,1-dioxido-4H-benzo[b][1,4]thiazin-6-yl)amino)methyl)imidazo[1,2-a]pyridin-8-yl)-3-methylimidazolidine-2,4-dione] are at most 1 nM and 400 to 1500 nM.
Turning to `Cc1ccnc([C@H]2C[C@@H]2c2cc(N3CC4(COC4)C3)c3ccc(NC(C)c4cn5cc(C6CC6)cc(N6CC(=O)N(C)C6=O)c5n4)cc3n2)n1` (stereo partly drawn) [Example 99, 1-(6-cyclopropyl-2-(1-((2-((1S,2S)-2-(4-methylpyrimidin-2-yl)cyclopropyl)-4-(2-oxa-6-azaspiro[3.3]heptan-6-yl)quinolin-7-yl)amino)ethyl)imidazo[1,2-a]pyridin-8-yl)-3-methylimidazolidine-2,4-dione], the EC50 in assay [1] was 1 to 10 nM. Further, the IC90 at plasma kallikrein is 400 to 1500 nM.
Take `Cc1ccnc([C@H]2C[C@@H]2c2cc(N3CC4(COC4)C3)c3ccc(N(C)Cc4cn5cc(C6CC6)cc(N6CC(=O)N(C)C6=O)c5n4)cc3n2)n1` [Example 98, 1-(6-cyclopropyl-2-((methyl(2-((1S,2S)-2-(4-methylpyrimidin-2-yl)cyclopropyl)-4-(2-oxa-6-azaspiro[3.3]heptan-6-yl)quinolin-7-yl)amino)methyl)imidazo[1,2-a]pyridin-8-yl)-3-methylimidazolidine-2,4-dione]: the EC50 in assay [1] was at most 1 nM. The molecule also registered an IC90 against plasma kallikrein of at most 400 nM.

Values taken from patent US20240199613A1 (TAKEDA PHARMACEUTICAL COMPANY LIMITED, priority 2021, published 2024).
